Source: patent US20240269317A1, “TARGETED ENCAPSULATION STRATEGIES FOR TREATMENT MODALITIES” (NUTARIA LTD., priority 2021, published 2024)

Experiments:
PPARγ = target: T1, PPARγ (Homo sapiens, UniProt P37231); conditions: classified by ability to inhibit rosiglitazone-induced cellular responses; cited from earlier work
T1 sequence (P37231 1-505): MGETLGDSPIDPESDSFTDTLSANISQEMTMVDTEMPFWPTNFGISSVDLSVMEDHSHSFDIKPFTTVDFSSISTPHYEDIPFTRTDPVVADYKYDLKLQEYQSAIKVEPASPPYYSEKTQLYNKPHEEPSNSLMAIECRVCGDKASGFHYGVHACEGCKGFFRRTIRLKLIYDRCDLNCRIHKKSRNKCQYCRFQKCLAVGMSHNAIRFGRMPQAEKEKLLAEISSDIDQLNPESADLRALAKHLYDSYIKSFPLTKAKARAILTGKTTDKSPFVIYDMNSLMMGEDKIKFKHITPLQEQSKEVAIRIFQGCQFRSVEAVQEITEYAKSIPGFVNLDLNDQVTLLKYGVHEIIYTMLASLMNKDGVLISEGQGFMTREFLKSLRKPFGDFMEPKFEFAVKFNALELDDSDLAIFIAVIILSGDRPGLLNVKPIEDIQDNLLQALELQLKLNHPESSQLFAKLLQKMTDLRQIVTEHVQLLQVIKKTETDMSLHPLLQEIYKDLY

[1] = test system: nuclear transcription factor κB (NF-κB) activation; conditions: cited from earlier work; for activation of IRAK-1, IKK-β, NF-κB, and MAP kinases (ERK, JNK, and p-38): LPS-stimulated murine peritoneal macrophages; for NF-κB activation: lipopolysaccharide (LPS)-stimulated murine peritoneal macrophages
[2] = test system: Human Neuroblastoma cells (SH Sy5Y cells cell line); experiment: in-vitro curcumin delivery experiment (curcumin fluorescence); format: cell-based; conditions: after 3.5 hours of treatment, relative to the 1 hour time point
Text: FIGS. 5a-b depict different time points of the same experiment. […] This effect might be due to intra-cellular metabolism of the curcumin present in the SLN 10+Caffeine 13 sample.

cyclooxygenase-2 (COX-2) = target: T2, cyclooxygenase-2 (COX-2) (Homo sapiens, UniProt P35354); conditions: cited from earlier work
T2 sequence (P35354 18-604): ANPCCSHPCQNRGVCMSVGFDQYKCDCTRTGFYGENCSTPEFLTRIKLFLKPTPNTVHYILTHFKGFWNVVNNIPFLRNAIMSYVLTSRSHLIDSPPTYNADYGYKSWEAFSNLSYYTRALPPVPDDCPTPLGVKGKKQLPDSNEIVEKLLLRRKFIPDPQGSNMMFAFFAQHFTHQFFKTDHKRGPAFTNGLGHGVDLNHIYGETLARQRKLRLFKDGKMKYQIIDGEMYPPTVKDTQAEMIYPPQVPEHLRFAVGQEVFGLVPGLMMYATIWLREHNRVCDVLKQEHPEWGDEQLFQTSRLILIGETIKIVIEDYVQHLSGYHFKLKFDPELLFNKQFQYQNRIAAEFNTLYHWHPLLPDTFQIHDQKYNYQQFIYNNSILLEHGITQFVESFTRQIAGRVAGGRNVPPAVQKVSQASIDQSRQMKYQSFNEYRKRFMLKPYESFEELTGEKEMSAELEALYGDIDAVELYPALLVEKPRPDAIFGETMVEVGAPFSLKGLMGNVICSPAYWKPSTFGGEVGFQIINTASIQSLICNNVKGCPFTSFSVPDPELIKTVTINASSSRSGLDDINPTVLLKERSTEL

Compound	PPARγ activity (agonist, antagonist or modulator) (PPARγ)	other results
O=c1cc(-c2ccc(O)cc2)oc2cc(O)cc(O)c12 [apigenin]	modulators	–
COc1ccc(-c2coc3cc(O)cc(O)c3c2=O)cc1 [biochanin A]	agonist	–
CC(C)=CCC[C@](C)(O[C@@H]1O[C@H](CO)[C@@H](O)[C@H](O)[C@H]1O)[C@H]1CC[C@]2(C)[C@@H]1[C@H](O)C[C@@H]1[C@@]3(C)CC[C@H](O)C(C)(C)[C@@H]3CC[C@]12C [compound K]	–	activation of IRAK-1, IKK-β, NF-κB, and MAP kinases (ERK, JNK, and p-38) [1]: significantly inhibited; NF-κB activation [1]: inhibited
COc1cc(/C=C/C(=O)CC(=O)/C=C/c2ccc(O)c(OC)c2)ccc1O [curcumin]	–	curcumin fluorescence [2]: remained at the same levels
COc1ccc(-c2cc(=O)c3c(O)cc(O)cc3o2)cc1O [diosmetin]	antagonists	–
CC(C)=CCC[C@](C)(O[C@@H]1O[C@H](CO[C@@H]2O[C@H](CO)[C@@H](O)[C@H](O)[C@H]2O)[C@@H](O)[C@H](O)[C@H]1O)[C@H]1CC[C@]2(C)[C@@H]1[C@H](O)C[C@@H]1[C@@]3(C)CC[C@H](O[C@@H]4O[C@H](CO)[C@@H](O)[C@H](O)[C@H]4O[C@@H]4O[C@H](CO)[C@@H](O)[C@H](O)[C@H]4O)C(C)(C)[C@@H]3CC[C@]12C [ginsenoside Rb1]	–	activation of IRAK-1, IKK-β, NF-κB, and MAP kinases (ERK, JNK, and p-38) [1]: significantly inhibited; NF-κB activation [1]: inhibited
O=c1cc(-c2ccc(O)c(O)c2)oc2cc(O)cc(O)c12 [luteolin]	antagonists	–
O=C1C[C@@H](c2ccc(O)cc2)Oc2cc(O)cc(O)c21 [naringenin]	modulators	–
O=c1c(O)c(-c2ccc(O)c(O)c2)oc2cc(O)cc(O)c12 [quercetin]	antagonists	–
O=C(/C=C/c1ccc(O)c(O)c1)O[C@H](Cc1ccc(O)c(O)c1)C(=O)O [rosmarinic acid]	antagonists	–
C-phycocyanin	–	IC50 COX-2/IC50 COX-1 ratio (cyclooxygenase-2 (COX-2)): 0.04
